Like-named read-outs stand apart in the source and are kept apart here.
Tests used:
PI3Kγ = PI3Kγ (Homo sapiens, UniProt P48736); experiment: PI3K HTRF assay, PI3K-gamma; assay type: biochemical; conditions: read-out: pIC50 PI3Kγ (converted); note: 15 µM ATP
Protocol: (§1) The binding of compounds to PI3K-alpha/beta/delta/gamma is determined by homogeneous time resolved fluorescence (HTRF) assays as follows;
(§2) Briefly, solid compound is dissolved in 100% DMSO at a concentration of 2 mM. Dilutions are prepared in 100% DMSO using a 1 in 4 serial step dilution. The dilutions are transferred to black low volume Greiner assay plates ensuring that the DMSO concentration is constant across the plate at 1% (0.1 μL/well).
(§3) PI3K Reaction Buffer (contains 50 mM HEPES pH 7.0 (NaOH), 150 mM NaCl, 10 mM MgCl2, 2.3 mM sodium cholate, […] CHAPS made up in milliQ water). Fresh DTT is added at a final concentration of 1 mM on the day of use.
(§4) Enzyme solutions: 1× PI3K Assay Buffer containing: • 550 pM PI3K-Alpha enzyme (275 pM final assay concentration) • 800 pM PI3K-Beta enzyme (400 pM final assay concentration) • 3 nM PI3K-Delta enzyme (1.5 nM final assay concentration) • 10 nM PI3K-Gamma enzyme (5 nM final assay concentration)
(§5) These concentrations are optimal to achieve a signal:background of between 1.5-4.5. The enzyme solution is added to columns 1-24 (3 μL/well) and plates are incubated for 15 minutes at room temperature.
(§6) Substrate solution: 1× PI3K Assay Buffer containing: • PI3K-Alpha: 500 μM ATP, 20 μM PIP2 and 120 nM biotin-PIP3.
(§7) This is added to all wells and plates are incubated for 1 hour at room temperature.
(§8) Detection solution: PI3K Detection Buffer (contains 50 mM HEPES pH 7.0 (HCl), 150 mM NaCl, 2.3 mM sodium cholate, 10 μM CHAPS, 240 mM potassium fluoride) containing 2 mM DTT (2× final assay concentration), 90 nM GRP-1 PH domain, 300 nM Streptavidin-APC and 24 nM Europium-anti-GST (6× final assay concentrations).
(§9) This is mixed left at room temperature (protected from light).
(§10) STOP solution: PI3K STOP Buffer (contains 50 mM HEPES pH 7.0 (HCl), 150 mM NaCl, 2.3 mM sodium cholate, 10 μM CHAPS, 150 mM EDTA).
(§11) Detection solution is diluted 1:1 with STOP solution and added to all wells (3 μL/well). Plates are covered and incubated on the bench for 45-60 minutes.
(§12) Plates are read on a PerkinElmer Envision, measuring TR-FRET between the complex formed between the GST-tagged PH domain and biotinylated PIP3 which both recruit fluorophores (Europium-labelled anti-GST & Strep-APC respectively). In the […] of an inhibitor, this complex is disrupted by the competitive action of non-biotinylated PIP3 (formed in the assay by the phosphorylation of PIP2 by the kinase & ATP). From this, the ratio of acceptor/donor was calculated (λex=317 nm, Δem donor=615 nm, Δem acceptor=665 nm) and used for data analysis.

PI3Kβ = PI3Kβ (Homo sapiens, UniProt P42338); experiment: PI3K HTRF assay, PI3K-beta; assay type: biochemical; conditions: read-out: pIC50 PI3Kβ (converted); note: 400 µM ATP
Protocol: as §1, §2, §3, §4, §5, §6, §7, §8, §9, §10, §11, §12

PI3Kδ [1] = biological target: T1, PI3Kδ (Homo sapiens, UniProt O00329); experiment: PI3Kδ jump dilution experiment; assay type: biochemical; conditions: 15 min incubation, 100-fold dilution, read for 30 minutes
Protocol: Irreversibility of the PI3Kδ-Inhibitor complex, and reversibility of the non-covalent controls, was determined by jump-dilution assay as follows:
PI3Kδ enzyme was made up to a 100× assay concentration (final assay concentration=6 nM) in buffer solution (contains 50 mM HEPES pH 7.0 (NaOH), 150 mM NaCl, 10 mM MgCl2, 2.3 mM sodium cholate, 10 μM CHAPS made up in milliQ water).
100× enzyme solution was added to compound wells (20 μL/well), and incubated for 15 mins, after which point the assay was diluted 100-fold with commercially available ADP QUEST substrate solution, available from DiscoverX (calatog number: 90-0071), (3200 μL DiscoverX Reagent A, 6400 μL DiscoverX Reagent B, 1 mM ATP and 40 μM PIP2). Production of fluorescence signal was then measured immediately using a Tecan Safire II plate reader at 30 second intervals for 30 minutes (λex=544 nm, λem=590 nm).

PI3Kα = PI3Kα (Homo sapiens, UniProt P42336); experiment: PI3K HTRF assay, PI3K-alpha; assay type: biochemical; conditions: read-out: pIC50 PI3Kα (converted); note: 250 µM ATP
Protocol: as §1, §2, §3, §4, §5, §6, §7, §8, §9, §10, §11, §12

PI3Kδ [2] = biological target: T1, PI3Kδ; experiment: PI3K HTRF assay, PI3K-delta; assay type: biochemical; conditions: read-out: pIC50 PI3Kδ (converted); note: 80 µM ATP
Protocol: as §1, §2, §3, §4, §5, §6, §7, §8, §9, §10, §11, §12

PI3Kδ [3] = biological target: T1, PI3Kδ; experiment: Protein mass spectrometry: covalent adduct assessment and competition experiment; assay type: binding; conditions: 10:1 inhibitor:protein, incubated overnight
Protocol: Compounds were incubated with 1 μM protein in a 10:1 inhibitor:protein ratio in buffer containing 50 mM HEPES, pH 7.0 (NaOH), 150 mM NaCl, 10 mM MgCl2, 2.3 mM cholate, 10 μM CHAPS. After the desired time, the assays were quenched with a 10% formic acid solution, and analysed by LCMS using an Agilent 6224 TOF LC/MS equipped with Agilent 1200 Series autosampler. Analytes were separated on a Polymer Labs (Agilent) PLRP-S column (50 mm×1 mm internal diameter, 5 μm particle size). LC conditions were 0.5 mL·min^−1 flow rate, 70° C., 10 μL injection volume. Gradient elution with (A) water containing 0.2% (v/v) formic acid and (B) acetonitrile containing 0.2% (v/v) formic acid. Gradient conditions were initially 10% B, increasing to 30% after 0.5 min, and then linearly to 80% B over 4.5 min, prior to a 1.2 min flush with 100% B and then a 1.9 minute equilibration with 10% B prior to the next injection. Mass spectra were then deconvoluted using Agilent MassHunter Qualitative Analysis version B.06.00 over the mass range 70-170 kDa to obtain the intact protein mass.
A potent reversible ATP competitive inhibitor was incubated with 1 μM protein in a 10:1 inhibitor:protein ratio in buffer containing 50 mM HEPES, pH 7.0 (NaOH), 150 mM NaCl, 10 mM MgCl2, 2.3 mM cholate, 10 μM CHAPS at room temperature. […] The assay was quenched at 5 min and analysed using the procedure detailed above.

[4] = system: amphetamine-induced psychosis; conditions: Law et al. 2012; cited from earlier work
Class I PI3-kinases = conditions: read-out: IC50 against each of the Class I PI3-kinases, cited from earlier work
CK2 protein kinase = conditions: literature; cited from earlier work

PI3Kα, sequence (P42336 whole entry, species assumed): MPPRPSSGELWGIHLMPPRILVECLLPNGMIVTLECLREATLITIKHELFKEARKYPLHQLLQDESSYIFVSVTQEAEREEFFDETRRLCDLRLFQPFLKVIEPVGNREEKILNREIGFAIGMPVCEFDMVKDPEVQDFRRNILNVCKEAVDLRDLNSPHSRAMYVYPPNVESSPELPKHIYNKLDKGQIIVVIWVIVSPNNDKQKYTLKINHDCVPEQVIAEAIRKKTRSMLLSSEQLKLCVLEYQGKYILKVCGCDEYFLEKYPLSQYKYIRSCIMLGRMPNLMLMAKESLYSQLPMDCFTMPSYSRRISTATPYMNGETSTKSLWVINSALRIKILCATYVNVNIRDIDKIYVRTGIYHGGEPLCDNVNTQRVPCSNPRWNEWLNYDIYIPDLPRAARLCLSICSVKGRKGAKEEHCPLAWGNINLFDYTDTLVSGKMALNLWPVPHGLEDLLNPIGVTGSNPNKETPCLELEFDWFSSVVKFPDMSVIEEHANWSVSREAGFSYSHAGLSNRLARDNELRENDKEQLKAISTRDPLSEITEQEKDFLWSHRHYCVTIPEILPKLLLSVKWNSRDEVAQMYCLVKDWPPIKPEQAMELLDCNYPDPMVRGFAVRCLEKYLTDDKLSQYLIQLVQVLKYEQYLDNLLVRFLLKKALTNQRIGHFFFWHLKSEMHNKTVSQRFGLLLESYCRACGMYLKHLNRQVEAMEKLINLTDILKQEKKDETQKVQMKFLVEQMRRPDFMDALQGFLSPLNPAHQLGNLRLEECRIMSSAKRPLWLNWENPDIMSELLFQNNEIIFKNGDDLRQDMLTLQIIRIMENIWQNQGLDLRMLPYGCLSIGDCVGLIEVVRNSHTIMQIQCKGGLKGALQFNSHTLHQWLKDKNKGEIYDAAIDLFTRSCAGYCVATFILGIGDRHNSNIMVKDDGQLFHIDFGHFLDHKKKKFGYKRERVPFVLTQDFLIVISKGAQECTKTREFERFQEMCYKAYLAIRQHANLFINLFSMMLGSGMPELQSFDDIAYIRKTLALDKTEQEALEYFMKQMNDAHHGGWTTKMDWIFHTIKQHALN
PI3Kα, sequence (P27986 whole entry partner, species assumed): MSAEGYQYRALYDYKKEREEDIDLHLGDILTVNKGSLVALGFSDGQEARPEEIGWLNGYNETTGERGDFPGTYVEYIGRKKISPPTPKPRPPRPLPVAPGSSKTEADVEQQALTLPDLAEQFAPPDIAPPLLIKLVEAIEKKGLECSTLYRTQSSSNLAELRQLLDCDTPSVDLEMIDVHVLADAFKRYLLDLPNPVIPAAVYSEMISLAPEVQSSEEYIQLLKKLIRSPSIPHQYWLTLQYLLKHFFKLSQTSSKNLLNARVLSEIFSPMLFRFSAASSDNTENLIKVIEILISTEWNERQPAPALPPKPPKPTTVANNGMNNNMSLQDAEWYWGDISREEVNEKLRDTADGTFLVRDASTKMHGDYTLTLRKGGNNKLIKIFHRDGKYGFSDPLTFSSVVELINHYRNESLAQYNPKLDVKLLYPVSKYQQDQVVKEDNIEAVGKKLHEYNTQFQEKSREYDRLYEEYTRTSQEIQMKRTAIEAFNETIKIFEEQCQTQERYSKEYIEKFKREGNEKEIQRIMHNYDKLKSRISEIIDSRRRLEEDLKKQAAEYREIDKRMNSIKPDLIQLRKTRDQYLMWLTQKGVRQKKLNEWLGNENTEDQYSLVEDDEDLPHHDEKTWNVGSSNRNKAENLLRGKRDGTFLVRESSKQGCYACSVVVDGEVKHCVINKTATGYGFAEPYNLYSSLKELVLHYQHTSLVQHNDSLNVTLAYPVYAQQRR
T1 sequence (O00329 whole entry): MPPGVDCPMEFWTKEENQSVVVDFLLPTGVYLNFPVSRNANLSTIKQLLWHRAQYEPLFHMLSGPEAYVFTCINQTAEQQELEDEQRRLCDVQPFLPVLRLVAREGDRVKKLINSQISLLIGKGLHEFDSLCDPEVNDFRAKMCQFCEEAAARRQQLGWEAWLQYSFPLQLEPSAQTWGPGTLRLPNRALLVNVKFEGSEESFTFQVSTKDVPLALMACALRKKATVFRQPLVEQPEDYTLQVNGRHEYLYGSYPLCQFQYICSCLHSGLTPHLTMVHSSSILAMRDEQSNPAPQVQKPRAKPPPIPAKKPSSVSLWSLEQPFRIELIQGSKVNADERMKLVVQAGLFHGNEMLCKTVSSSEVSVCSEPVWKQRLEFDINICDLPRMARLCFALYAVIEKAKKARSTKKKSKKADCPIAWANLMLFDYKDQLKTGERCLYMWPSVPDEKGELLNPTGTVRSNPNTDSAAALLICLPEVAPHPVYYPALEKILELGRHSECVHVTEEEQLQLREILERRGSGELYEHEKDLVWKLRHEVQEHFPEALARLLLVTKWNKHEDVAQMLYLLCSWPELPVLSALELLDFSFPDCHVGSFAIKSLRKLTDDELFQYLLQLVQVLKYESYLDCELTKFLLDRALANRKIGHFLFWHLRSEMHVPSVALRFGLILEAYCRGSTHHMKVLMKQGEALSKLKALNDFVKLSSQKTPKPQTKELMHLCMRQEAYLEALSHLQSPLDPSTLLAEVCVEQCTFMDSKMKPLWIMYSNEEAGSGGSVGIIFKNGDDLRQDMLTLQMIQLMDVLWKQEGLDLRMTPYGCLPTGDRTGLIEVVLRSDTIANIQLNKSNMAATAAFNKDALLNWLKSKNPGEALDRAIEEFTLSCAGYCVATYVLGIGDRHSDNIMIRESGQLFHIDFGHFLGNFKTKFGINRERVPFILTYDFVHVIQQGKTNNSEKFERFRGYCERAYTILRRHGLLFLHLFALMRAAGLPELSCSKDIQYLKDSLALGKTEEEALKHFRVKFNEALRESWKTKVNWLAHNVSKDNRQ
T1 sequence (P27986 whole entry partner): as the sequence (P27986 whole entry partner, species assumed) above
PI3Kγ, sequence (P48736 whole entry, species assumed): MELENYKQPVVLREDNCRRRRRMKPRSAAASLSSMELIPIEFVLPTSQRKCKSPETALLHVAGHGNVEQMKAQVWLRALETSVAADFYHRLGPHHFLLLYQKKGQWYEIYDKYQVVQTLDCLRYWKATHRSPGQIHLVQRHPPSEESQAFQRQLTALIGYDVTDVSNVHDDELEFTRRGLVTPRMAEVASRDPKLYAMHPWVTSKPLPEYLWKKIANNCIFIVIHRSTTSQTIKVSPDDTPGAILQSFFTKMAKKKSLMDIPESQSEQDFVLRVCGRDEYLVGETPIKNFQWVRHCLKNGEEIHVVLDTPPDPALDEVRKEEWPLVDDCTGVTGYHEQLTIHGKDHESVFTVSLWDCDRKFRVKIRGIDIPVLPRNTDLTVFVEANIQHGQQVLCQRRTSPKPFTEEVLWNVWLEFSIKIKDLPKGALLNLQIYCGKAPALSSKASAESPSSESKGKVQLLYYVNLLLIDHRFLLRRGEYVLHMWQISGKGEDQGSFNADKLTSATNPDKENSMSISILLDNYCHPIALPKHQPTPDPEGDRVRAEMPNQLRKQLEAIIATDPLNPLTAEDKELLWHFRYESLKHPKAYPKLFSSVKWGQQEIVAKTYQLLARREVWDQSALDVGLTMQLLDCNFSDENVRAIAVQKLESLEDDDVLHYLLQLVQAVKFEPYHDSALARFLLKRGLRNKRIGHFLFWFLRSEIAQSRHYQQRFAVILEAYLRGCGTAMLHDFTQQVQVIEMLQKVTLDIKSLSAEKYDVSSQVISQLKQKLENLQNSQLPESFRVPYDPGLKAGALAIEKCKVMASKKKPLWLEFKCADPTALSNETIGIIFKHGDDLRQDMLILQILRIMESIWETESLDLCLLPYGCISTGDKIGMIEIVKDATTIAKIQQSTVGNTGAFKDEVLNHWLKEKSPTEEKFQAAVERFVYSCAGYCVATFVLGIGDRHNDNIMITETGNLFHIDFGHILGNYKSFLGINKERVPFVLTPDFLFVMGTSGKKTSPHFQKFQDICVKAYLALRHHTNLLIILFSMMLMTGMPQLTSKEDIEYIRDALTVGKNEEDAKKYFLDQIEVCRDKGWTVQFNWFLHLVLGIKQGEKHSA
PI3Kβ, sequence (P42338 whole entry, species assumed): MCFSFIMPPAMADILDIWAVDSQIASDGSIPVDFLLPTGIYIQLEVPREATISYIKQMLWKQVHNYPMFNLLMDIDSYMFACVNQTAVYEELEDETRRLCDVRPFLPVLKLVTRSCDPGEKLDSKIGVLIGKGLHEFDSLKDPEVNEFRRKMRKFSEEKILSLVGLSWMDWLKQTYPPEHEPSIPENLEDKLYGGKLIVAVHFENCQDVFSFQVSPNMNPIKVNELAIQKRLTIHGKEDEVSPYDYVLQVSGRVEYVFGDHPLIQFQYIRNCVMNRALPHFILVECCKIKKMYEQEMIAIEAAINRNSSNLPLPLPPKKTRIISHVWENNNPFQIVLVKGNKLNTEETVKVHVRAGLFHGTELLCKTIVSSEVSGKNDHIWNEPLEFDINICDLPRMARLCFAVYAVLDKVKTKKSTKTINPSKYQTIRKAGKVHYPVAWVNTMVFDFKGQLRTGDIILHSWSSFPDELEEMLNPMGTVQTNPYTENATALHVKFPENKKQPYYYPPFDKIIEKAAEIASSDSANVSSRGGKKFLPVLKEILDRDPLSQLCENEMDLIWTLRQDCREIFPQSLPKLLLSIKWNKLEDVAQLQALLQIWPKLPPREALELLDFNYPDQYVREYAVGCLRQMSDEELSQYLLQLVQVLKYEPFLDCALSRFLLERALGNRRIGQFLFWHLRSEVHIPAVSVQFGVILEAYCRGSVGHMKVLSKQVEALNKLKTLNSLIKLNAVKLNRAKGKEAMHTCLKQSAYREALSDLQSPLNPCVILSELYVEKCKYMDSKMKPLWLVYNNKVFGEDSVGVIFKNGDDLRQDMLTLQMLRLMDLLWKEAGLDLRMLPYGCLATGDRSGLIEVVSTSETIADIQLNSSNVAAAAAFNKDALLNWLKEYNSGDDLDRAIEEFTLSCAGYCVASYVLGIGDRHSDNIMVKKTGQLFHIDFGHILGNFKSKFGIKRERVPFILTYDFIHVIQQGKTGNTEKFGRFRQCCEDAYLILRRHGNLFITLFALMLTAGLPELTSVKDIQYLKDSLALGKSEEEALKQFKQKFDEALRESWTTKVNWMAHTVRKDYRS
PI3Kβ, sequence (P27986 whole entry partner, species assumed): as the sequence (P27986 whole entry partner, species assumed) above

In the case of `COC(=O)c1cc(-c2cc(-c3ncc(CN4CCN(C(C)C)CC4)o3)c3cn[nH]c3c2)cnc1OC.O=CO` [Example 1, Methyl 5-(4-(5-((4-isopropylpiperazin-1-yl)methyl)oxazol-2-yl)-1H-indazol-6-yl)-2-methoxynicotinate], the IC50 (PI3Kγ) is reported as > 31.6 µM, the IC50 (PI3Kβ) is reported as > 31.6 µM and the “Recovery of enzyme activity after jump dilution” value (PI3Kδ [1]) is reported as “Recovery of enzyme activity was observed”. It also gave an IC50 (PI3Kα) of 10 µM and an IC50 (PI3Kδ [2]) of 0.0398 µM.

In the case of `COc1ncc(-c2cc(-c3ncc(CN4CCN(C(C)C)CC4)o3)c3cn[nH]c3c2)cc1C(=O)O` [Example 2, 5-(4-(5-((4-Isopropylpiperazin-1-yl)methyl)oxazol-2-yl)-1H-indazol-6-yl)-2-methoxynicotinic acid], the IC50 (PI3Kγ) is reported as 15.8 µM, the “Covalent modification of PI3Kδ (protein mass spectrometry)” value (PI3Kδ [3]) is reported as “no modification” and the IC50 (PI3Kβ) is reported as 20 µM. The “Recovery of enzyme activity after jump dilution” value (PI3Kδ [1]) was “Recovery of enzyme activity was observed”, the IC50 (PI3Kα) was 12.6 µM and the IC50 (PI3Kδ [2]) was 0.0126 µM.

`COc1ncc(-c2cc(-c3ncc(CN4CCN(C(C)C)CC4)o3)c3cn[nH]c3c2)cc1C(=O)Oc1ccccc1[N+](=O)[O-]` [Example 3, 2-Nitrophenyl 5-(4-(5-((4-isopropylpiperazin-1-yl)methyl)oxazol-2-yl)-1H-indazol-6-yl)-2-methoxynicotinate] showed an IC50 (PI3Kγ) of 3.16 µM, an IC50 (PI3Kβ) of 0.2 µM and an IC50 (PI3Kα) of 0.0794 µM. The IC50 (PI3Kδ [2]) was 0.00501 µM.

`COc1ncc(-c2cc(-c3ncc(CN4CCN(C(C)C)CC4)o3)c3cn[nH]c3c2)cc1C(=O)Oc1ccc([N+](=O)[O-])cc1` [Example 4, 4-Nitrophenyl 5-(4-(5-((4-isopropylpiperazin-1-yl)methyl)oxazol-2-yl)-1H-indazol-6-yl)-2-methoxynicotinate] gave an IC50 (PI3Kγ) of 1.58 µM, an IC50 (PI3Kβ) of 0.0631 µM and an IC50 (PI3Kα) of 0.00631 µM. For the same compound, the IC50 (PI3Kδ [2]) was 0.000631 µM.

With `COc1ncc(-c2cc(-c3ncc(CN4CCN(C(C)C)CC4)o3)c3cn[nH]c3c2)cc1C(=O)Oc1ccccc1C(F)(F)F` [Example 5, 2-(Trifluoromethyl)phenyl 5-(4-(5-((4-isopropylpiperazin-1-yl)methyl)oxazol-2-yl)-1H-indazol-6-yl)-2-methoxynicotinate] the IC50 (PI3Kγ) was 7.94 µM, the IC50 (PI3Kβ) was 2 µM and the IC50 (PI3Kα) was 1 µM. It also gave an IC50 (PI3Kδ [2]) of 0.00631 µM.

Work on `COc1ncc(-c2cc(-c3ncc(CN4CCN(C(C)C)CC4)o3)c3cn[nH]c3c2)cc1C(=O)Oc1ccc(C(F)(F)F)cc1` [Example 6, 4-(Trifluoromethyl)phenyl 5-(4-(5-((4-isopropylpiperazin-1-yl)methyl)oxazol-2-yl)-1H-indazol-6-yl)-2-methoxynicotinate] yielded an IC50 (PI3Kγ) of 25.1 µM, an IC50 (PI3Kβ) of 6.31 µM and an IC50 (PI3Kα) of 2 µM. The IC50 (PI3Kδ [2]) was 0.00398 µM.

`COc1ncc(-c2cc(-c3ncc(CN4CCN(C(C)C)CC4)o3)c3cn[nH]c3c2)cc1C(=O)Oc1ccccc1` [Example 8, Phenyl 5-(4-(5-((4-isopropylpiperazin-1-yl)methyl)oxazol-2-yl)-1H-indazol-6-yl)-2-methoxynicotinate] showed an IC50 (PI3Kγ) of 12.6 µM, an IC50 (PI3Kβ) of 3.98 µM and an IC50 (PI3Kα) of 2.51 µM. It also gave an IC50 (PI3Kδ [2]) of 0.00631 µM.

`COc1ncc(-c2cc(-c3ncc(CN4CCN(C(C)C)CC4)o3)c3cn[nH]c3c2)cc1C(=O)Oc1ccc(C)cc1C` [Example 9, 2,4-Dimethylphenyl 5-(4-(5-((4-isopropylpiperazin-1-yl)methyl)oxazol-2-yl)-1H-indazol-6-yl)-2-methoxynicotinate] gave an IC50 (PI3Kγ) of 10 µM, an IC50 (PI3Kβ) of 15.8 µM and an IC50 (PI3Kα) of 7.94 µM. It also gave an IC50 (PI3Kδ [2]) of 0.398 µM.

For `COc1ccc(OC(=O)c2cc(-c3cc(-c4ncc(CN5CCN(C(C)C)CC5)o4)c4cn[nH]c4c3)cnc2OC)cc1` [Example 10, 4-Methoxyphenyl 5-(4-(5-((4-isopropylpiperazin-1-yl)methyl)oxazol-2-yl)-1H-indazol-6-yl)-2-methoxynicotinate], the IC50 (PI3Kγ) was 10 µM, the IC50 (PI3Kβ) was 12.6 µM and the IC50 (PI3Kα) was 15.8 µM. It also gave an IC50 (PI3Kδ [2]) of 0.0501 µM.

With `COc1ncc(-c2cc(-c3ncc(CN4CCN(C(C)C)CC4)o3)c3cn[nH]c3c2)cc1C(=O)OCC(F)(F)F` [Example 11, 2,2,2-Trifluoroethyl 5-(4-(5-((4-isopropylpiperazin-1-yl)methyl)oxazol-2-yl)-1H-indazol-6-yl)-2-methoxynicotinate] the IC50 (PI3Kγ) was 20 µM, the IC50 (PI3Kβ) was > 31.6 µM and the IC50 (PI3Kα) was 15.8 µM. The IC50 (PI3Kδ [2]) was 0.316 µM.

For `Cc1ccccc1-n1c(Cn2cnc3c(N)ncnc32)nc2cccc(C)c2c1=O` [IC87114], the “Efficacy in mouse model of amphetamine-induced psychosis” value [4] is listed as “remarkable efficacy”.

For `O=c1cc(N2CCOCC2)oc2c(-c3ccccc3)cccc12` [LY294002], the IC50 (Class I PI3-kinases; Fruman et al. 1998) is listed as 15 to 20 µM and the IC50 (CK2 protein kinase) is listed as 5 to 10 µM.

In the case of `COC[C@H]1OC(=O)c2coc3c2[C@@]1(C)C1=C(C3=O)[C@@H]2CCC(=O)[C@@]2(C)C[C@H]1OC(C)=O` [Wortmannin], the IC50 (Class I PI3-kinases; literature) is listed as 0.001 to 0.01 µM.

Reference: US20190161480A1, “Chemical Compounds” (GLAXOSMITHKLINE INTELLECTUAL PROPERTY DEVELOPMENT LIMITED, priority 2016, published 2019)
